Read-outs that look alike come from different tables or passages of the source.
Legend:
corn [1] = assay: Test A preemergence; assay type: in vivo, Zea mays
How it was run: (§1)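 Visual injury scored 0–100 (100 = complete control) against untreated controls about 10 days after treatment in a greenhouse. Test chemicals, formulated with surfactant in non-phytotoxic solvent, were sprayed on soil preemergence or on 2-10 cm, one- to two-leaf plants postemergence.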

velvetleaf [2] = assay: Test A preemergence; assay type: in vivo, Abutilon theophrasti
How it was run: as §1

wheat = assay: Test A postemergence; assay type: in vivo, Triticum aestivum
How it was run: as §1

sedge, umbrella = assay: Test B flooded paddy test; assay type: in vivo, Cyperus difformis; conditions: Flood, 250 g ai/ha, 0 to 100 scale where 0 is no effect and 100 is complete control; for pest or weed control at 250 g/ha: Cyperus difformis, read-out: Plant response rating, Sedge, Umbrella
How it was run: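 Plants at 2-leaf stage; pots flooded to 3 cm above soil and compound applied directly into paddy water, depth held throughout. After 13 to 15 days in greenhouse, visual rating versus controls on 0 (no effect) to 100 (complete control) scale.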

pigweed = assay: Test C preemergence; assay type: in vivo, Amaranthus retroflexus
Source text: (§2) Seeds of plant species selected from blackgrass (Alopecurus myosuroides), Italian ryegrass (Lolium multiflorum), wheat, winter (winter wheat, Triticum aestivum), galium (catchweed bedstraw, Galium aparine), corn (Zea mays), large (Lg) crabgrass (Digitaria sanguinalis), giant foxtail (Setaria faberii), johnsongrass (Sorghum halepense), lambsquarters (Chenopodium album), morningglory (Ipomoea coccinea), yellow nutsedge (Cyperus esculentus), pigweed (Amaranthus retroflexus), ragweed (common ragweed, Ambrosia elatior), soybean (Glycine max), barnyardgrass (Echinochloa crus-galli), oilseed rape (Brassica napus), waterhemp (common waterhemp, Amaranthus rudis), kochia (Kochia scoparia), wild oat (Avena fatua), surinam grass (Brachiaria decumbens), foxtail, green (green foxtail, Setaria viridis), goosegrass (Eleusine indica), bromegrass, downy (downy bromegrass, Bromus tectorum), nightshade (eastern black nightshade, Solanum ptycanthum), cocklebur (common cocklebur, Xanthium strumarium), cupgrass, woolly (woolly cupgrass, Eriochloa villosa), bermudagrass (Cynodon dactylon), sunflower, (common oilseed sunflower, Helianthus annuus), Russian thistle (Salsola kali), and velvetleaf (Abutilon theophrasti) were planted into a blend of loam soil and sand and treated preemergence with test chemicals formulated in a non-phytotoxic solvent mixture which included a surfactant.
(§3) At the same time, plants selected from these crop and weed species and also barley, winter (winter barley, Hordeum vulgare), windgrass (Apera spica-venti), chickweed (common chickweed, Stellaria media), deadnettle (henbit deadnettle, Lamium amplexicaule), and canarygrass (littleseed canarygrass, Phalaris minor) were planted in pots containing Redi-Earth® planting medium (Scotts Company, 14111 Scottslawn Road, Marysville, Ohio 43041) comprising spaghnum peat moss, vermiculite, wetting agent and starter nutrients and treated with postemergence applications of test chemicals formulated in the same manner. Plants ranged in height from 2 to 18 cm (1- to 4-leaf stage) for postemergence treatments. Treated plants and controls were maintained in a greenhouse for 13 to 15 days, after which time all species were compared to controls and visually evaluated. Plant response ratings, summarized in Table C, are based on a scale of 0 to 100 where 0 is no effect and 100 is complete control. A dash (-) response means no test result.

blackgrass = assay: Test C preemergence; assay type: in vivo, Alopecurus myosuroides
Source text: as §2, §3

corn [3] = assay: Test C preemergence; assay type: in vivo, Zea mays
Source text: as §2, §3

velvetleaf [4] = assay: Test C preemergence; assay type: in vivo, Abutilon theophrasti
Source text: as §2, §3

[5] = 16 g ai/ha, preemergence, scale 0 to 100 (0 no effect, 100 complete control)
[6] = 125 g ai/ha, preemergence, scale 0 (no effect) to 100 (complete control)
[7] = Preemergence, 62 g ai/ha, scale 0 to 100, 0 no effect, 100 complete control
[8] = 31 g ai/ha, 0 to 100 scale, 0 no effect, 100 complete control
[9] = 125 g ai/ha, 0 to 100 scale, 0 no effect, 100 complete control
[10] = 62 g ai/ha, preemergence, scale 0 (no effect) to 100 (complete control)
[11] = 125 g ai/ha, 0 to 100 scale where 0 is no effect and 100 is complete control
[12] = Preemergence, 31 g ai/ha, scale 0 to 100, 0 no effect, 100 complete control
[13] = 500 g ai/ha, 0 to 100 scale, 0 no effect, 100 complete control, approx. 10 days

FC(F)(F)c1ccn(-c2ccccc2Oc2ncc(Cl)cn2)n1 [Compound 2, 5-chloro-2-[2-[3-(trifluoromethyl)-1H-pyrazol-1-yl]phenoxy]pyrimidine]
plant injury at 125 g/ha (corn [1]; Zea mays, pre-emergence, 240 h, 125 g ai/ha, 0 to 100 scale where 0 is no effect and 100 is complete control, read-out: Corn plant response rating): 0% | plant injury at 500 g/ha (corn [1]; Zea mays, pre-emergence, 240 h, 500 g ai/ha, 0 to 100 scale, 0 no effect, 100 complete control, approx. 10 days, read-out: Corn plant response rating): 30% | pest or weed control at 125 g/ha (velvetleaf [2]; Abutilon theophrasti, pre-emergence, 240 h, 125 g ai/ha, 0 to 100 scale where 0 is no effect and 100 is complete control, read-out: Velvetleaf plant response rating): 30% | pest or weed control at 500 g/ha (velvetleaf [2]; Abutilon theophrasti, pre-emergence, 240 h, 500 g ai/ha, 0 to 100 scale, 0 no effect, 100 complete control, approx. 10 days, read-out: Velvetleaf plant response rating): 70% | plant injury at 125 g/ha (wheat; Triticum aestivum, post-emergence, 240 h, 125 g ai/ha, 0 to 100 scale where 0 is no effect and 100 is complete control, read-out: Plant response rating, Wheat): 0% | plant injury at 500 g/ha (wheat; Triticum aestivum, post-emergence, 240 h, 500 g ai/ha, 0 to 100 scale, 0 no effect, 100 complete control, read-out: Plant response rating Wheat): 0% | pest or weed control at 250 g/ha (sedge, umbrella): 0%

FCc1cccc(Oc2ncc(Cl)cn2)c1-n1cc(Cl)cn1 [Compound 250]
Pigweed plant response rating (pigweed; [5]): 85 | Pigweed plant response rating (pigweed; [6]): 100 | Plant response rating, Pigweed (pigweed; [7]): 100 | Plant response rating, Wheat (wheat; [8]): 0 | Plant response rating, Wheat (wheat; [9]): 0 | Blackgrass plant response rating (blackgrass; [5]): 0 | Blackgrass plant response rating (blackgrass; [6]): 90 | Plant response rating, Blackgrass (blackgrass; [7]): 70 | Plant response rating, Sedge, Umbrella (sedge, umbrella): 35 | Corn plant response rating (corn [3]; [5]): 0 | Corn plant response rating (corn [3]; [6]): 10 | Plant response rating, Corn (corn [3]; [7]): 0 | Velvetleaf plant response rating (velvetleaf [4]; [5]): 100 | Velvetleaf plant response rating (velvetleaf [4]; [6]): 100 | Plant response rating, Velvetleaf (velvetleaf [4]; [7]): 100

Fc1cccc(Oc2ncc(Cl)cn2)c1-n1cc(OCC(F)(F)F)cn1 [Compound 270]
Pigweed plant response rating (pigweed; [5]): 100 | Pigweed plant response rating (pigweed; [6]): 100 | Plant response rating, Pigweed (pigweed; [7]): 100 | Plant response rating, Wheat (wheat; [8]): 0 | Plant response rating, Wheat (wheat; [9]): 30 | Blackgrass plant response rating (blackgrass; [5]): 0 | Blackgrass plant response rating (blackgrass; [6]): 95 | Plant response rating, Blackgrass (blackgrass; [7]): 70 | Plant response rating, Sedge, Umbrella (sedge, umbrella): 90 | Corn plant response rating (corn [3]; [5]): 0 | Corn plant response rating (corn [3]; [6]): 55 | Plant response rating, Corn (corn [3]; [7]): 20 | Velvetleaf plant response rating (velvetleaf [4]; [5]): 0 | Velvetleaf plant response rating (velvetleaf [4]; [6]): 100 | Plant response rating, Velvetleaf (velvetleaf [4]; [7]): 98

COc1cnn(-c2c(C#N)cccc2Oc2ncc(Cl)cn2)c1 [Compound 137]
Pigweed plant response rating (pigweed; [5]): 75 | Pigweed plant response rating (pigweed; [10]): 90 | Pigweed plant response rating (pigweed; [6]): 100 | Wheat plant response rating (wheat; [11]): 30 | Plant response rating, Wheat (wheat; 500 g ai/ha, 0 to 100 scale where 0 is no effect and 100 is complete control): 70 | Blackgrass plant response rating (blackgrass; [5]): 0 | Blackgrass plant response rating (blackgrass; [10]): 5 | Blackgrass plant response rating (blackgrass; [6]): 10 | Plant response rating, Blackgrass (blackgrass; [12]): 0 | Plant response rating, Sedge, Umbrella (sedge, umbrella): 0 | Corn plant response rating (corn [3]; [5]): 0 | Corn plant response rating (corn [3]; [10]): 5 | Corn plant response rating (corn [3]; [6]): 10 | Plant response rating, Corn (corn [3]; [12]): 5 | Velvetleaf plant response rating (velvetleaf [4]; [5]): 40 | Velvetleaf plant response rating (velvetleaf [4]; [10]): 65 | Velvetleaf plant response rating (velvetleaf [4]; [6]): 85

N#Cc1cccc(Oc2ncc(Cl)cn2)c1-n1cnc(C(F)(F)F)c1 [Compound 252, 3-[(5-chloro-2-pyrimidinyl)oxy]-2-[4-(trifluoromethyl)-1H-imidazol-1-yl]benzonitrile]
pest or weed control at 16 g/ha (pigweed; Amaranthus retroflexus, pre-emergence, 16 g ai/ha, preemergence, scale 0 to 100 (0 no effect, 100 complete control), read-out: Pigweed plant response rating): 98% | pest or weed control at 125 g/ha (pigweed; Amaranthus retroflexus, pre-emergence, 125 g ai/ha, preemergence, scale 0 (no effect) to 100 (complete control), read-out: Pigweed plant response rating): 100% | pest or weed control at 62 g/ha (pigweed; Amaranthus retroflexus, pre-emergence, Preemergence, 62 g ai/ha, scale 0 to 100, 0 no effect, 100 complete control, read-out: Plant response rating, Pigweed): 100% | plant injury at 31 g/ha (wheat; Triticum aestivum, post-emergence, 240 h, 31 g ai/ha, 0 to 100 scale, 0 no effect, 100 complete control, read-out: Plant response rating, Wheat): 20% | plant injury at 125 g/ha (wheat; Triticum aestivum, post-emergence, 240 h, 125 g ai/ha, 0 to 100 scale, 0 no effect, 100 complete control, read-out: Plant response rating, Wheat): 30% | plant injury at 500 g/ha (wheat; Triticum aestivum, post-emergence, 240 h, 500 g ai/ha, 0 to 100 scale where 0 is no effect and 100 is complete control, read-out: Plant response rating, Wheat): 90% | pest or weed control at 16 g/ha (blackgrass; Alopecurus myosuroides, pre-emergence, 16 g ai/ha, preemergence, scale 0 to 100 (0 no effect, 100 complete control), read-out: Blackgrass plant response rating): 10% | pest or weed control at 125 g/ha (blackgrass; Alopecurus myosuroides, pre-emergence, 125 g ai/ha, preemergence, scale 0 (no effect) to 100 (complete control), read-out: Blackgrass plant response rating): 95% | pest or weed control at 62 g/ha (blackgrass; Alopecurus myosuroides, pre-emergence, Preemergence, 62 g ai/ha, scale 0 to 100, 0 no effect, 100 complete control, read-out: Plant response rating, Blackgrass): 90% | pest or weed control at 250 g/ha (sedge, umbrella): 80% | plant injury at 16 g/ha (corn [3]; Zea mays, pre-emergence, 16 g ai/ha, preemergence, scale 0 to 100 (0 no effect, 100 complete control), read-out: Corn plant response rating): 10% | plant injury at 125 g/ha (corn [3]; Zea mays, pre-emergence, 125 g ai/ha, preemergence, scale 0 (no effect) to 100 (complete control), read-out: Corn plant response rating): 70% | Corn plant response rating (crop injury, 0 = no effect, 100 = complete kill) at 62 g/ha (corn [3]; Zea mays, pre-emergence, Preemergence, 62 g ai/ha, scale 0 to 100, 0 no effect, 100 complete control): 40% | pest or weed control at 16 g/ha (velvetleaf [4]; Abutilon theophrasti, pre-emergence, 16 g ai/ha, preemergence, scale 0 to 100 (0 no effect, 100 complete control), read-out: Velvetleaf plant response rating): 75% | pest or weed control at 125 g/ha (velvetleaf [4]; Abutilon theophrasti, pre-emergence, 125 g ai/ha, preemergence, scale 0 (no effect) to 100 (complete control), read-out: Velvetleaf plant response rating): 100% | pest or weed control at 62 g/ha (velvetleaf [4]; Abutilon theophrasti, pre-emergence, Preemergence, 62 g ai/ha, scale 0 to 100, 0 no effect, 100 complete control, read-out: Plant response rating, Velvetleaf): 100%

FCc1cccc(Oc2ncc(F)cn2)c1-n1cc(C(F)(F)F)cn1 [Compound 118]
Pigweed plant response rating (pigweed; [5]): 90 | Pigweed plant response rating (pigweed; [10]): 100 | Pigweed plant response rating (pigweed; [6]): 100 | Plant response rating, Pigweed (pigweed; [12]): 100 | Plant response rating, Wheat (wheat; [8]): 20 | Blackgrass plant response rating (blackgrass; [5]): 35 | Blackgrass plant response rating (blackgrass; [10]): 90 | Blackgrass plant response rating (blackgrass; [6]): 95 | Plant response rating, Blackgrass (blackgrass; [12]): 80 | Plant response rating, Sedge, Umbrella (sedge, umbrella): 95 | Corn plant response rating (corn [3]; [5]): 10 | Corn plant response rating (corn [3]; [10]): 70 | Corn plant response rating (corn [3]; [6]): 85 | Plant response rating, Corn (corn [3]; [12]): 40 | Velvetleaf plant response rating (velvetleaf [4]; [5]): 100 | Velvetleaf plant response rating (velvetleaf [4]; [10]): 100 | Velvetleaf plant response rating (velvetleaf [4]; [6]): 100 | Plant response rating, Velvetleaf (velvetleaf [4]; [12]): 100

Clc1cnc(Oc2ccccc2-n2cc(Cl)cn2)nc1 [Compound 3]
Corn plant response rating (corn [1]; [11]): 0 | Corn plant response rating (corn [1]; [13]): 10 | Velvetleaf plant response rating (velvetleaf [2]; [11]): 70 | Velvetleaf plant response rating (velvetleaf [2]; [13]): 90 | Plant response rating, Wheat (wheat; [11]): 0 | Plant response rating, Wheat (wheat; 500 g ai/ha, 0 to 100 scale, 0 no effect, 100 complete control): 0 | Plant response rating, Sedge, Umbrella (sedge, umbrella): 75
